# Test results from US20050054559A1, “Compounds for sustained release of orally delivered drugs” (priority 2000, published 2005).
# pEC50, pIC50: −log10 of the molar value.
# Experiments:
# [1] = target: T1, IBAT (Homo sapiens, UniProt Q12908); assay: Inhibition of radiolabeled taurocholate uptake in IBAT-transfected CHO cells; assay type: cell-based; set-up: expressed in transfected cells; host or cells: CHO cells; conditions: radiolabeled competition assay in transporter-expressing CHO cells
# Experimental: CHO cells transfected with either the IBAT or LBAT transporter were seeded into 96-well microtiter plates at 100,000 cells/well in 100 μL DMEM containing 10% serum, glutamine and Penstrep. After overnight incubation the media was removed and test compound (25 μL) added at 2× the final desired concentration. Tritiated taurocholate (50,000 CPM/well) was diluted with cold substrate to a final concentration of 5 μM and 25 μL/well of this mixture was added to the plate. After incubating for 1 h at room temperature the solution was removed and the plate washed 4× with PBS at 4° C. 200 μL/well of scintillant is added and the plate then read in a Wallac microbeta counter. The inhibition data is processed by standard methods to calculate an inhibition constant Ki for the test compound.
# [2] = target: Cholylglycine Hydrolase (Clostridium perfringens, UniProt P54965); conditions: compared with plasma, liver or intestine
# [3] = target: T2, LBAT (Homo sapiens, UniProt Q14973); assay: Electrogenic transport in Xenopus oocytes expressing LBAT; assay type: cell-based
# T2 sequence (Q14973 1-349): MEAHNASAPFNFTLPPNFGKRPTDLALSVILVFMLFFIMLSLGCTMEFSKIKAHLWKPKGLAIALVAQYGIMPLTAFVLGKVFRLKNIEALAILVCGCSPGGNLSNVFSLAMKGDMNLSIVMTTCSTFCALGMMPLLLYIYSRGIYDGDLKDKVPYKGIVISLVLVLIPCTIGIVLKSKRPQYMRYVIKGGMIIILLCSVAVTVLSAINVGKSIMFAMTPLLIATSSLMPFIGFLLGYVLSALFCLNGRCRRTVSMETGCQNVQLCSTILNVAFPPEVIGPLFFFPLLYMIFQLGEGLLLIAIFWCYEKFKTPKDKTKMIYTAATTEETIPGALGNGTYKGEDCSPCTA
# Excerpt: RNA preparation: Human IBAT and LBAT Transporter cDNAs were subcloned into a modified pGEM plasmid that contains 5′ and 3′ untranslated sequences from the Xenopus β-actin gene. These sequences increase RNA stability and protein expression. Plasmid cDNA was linearized and used as template for in vitro transcription (Epicentre Technologies transcription kit, 4:1 methylated:non-methylated GTP).
# Xenopus oocyte isolation. Xenopus laevis frogs were anesthetized by immersion in Tricaine ([…] in deionized water) for 15 min. Oocytes were removed and digested in frog ringer solution (90 mM NaCl, 2 mM KCl, 1 mM MgCl2, 10 mM NaHEPES, pH 7.45, no CaCl2) with 1 mg/mL collagenase (Worthington Type 3) for 80-100 min with shaking. The oocytes were washed 6 times, and the buffer changed to frog ringer solution containing CaCl2 (1.8 mM). Remaining follicle cells were removed if necessary. Cells were incubated at 16° C., and each oocyte injected with […] RNA in […] solution.
# Electrophysiology measurements. Transport currents were measured 2-14 days after injection, using a standard two-electrode electrophysiology set-up (Geneclamp 500 amplifier, Digidata 1320/PCLAMP software and ADInstruments hardware and software were used for signal acquisition). Electrodes ([…]) were microfabricated using a Sutter Instrument puller and filled with 3M KCl. […]
# [4] = target: T1, IBAT; assay: In vitro uptake by CHO cells transfected with IBAT, evaluated by LC-MS/MS; assay type: cell-based; set-up: expressed in transfected cells; host or cells: CHO cells; conditions: 0.06 to 1000 μM, 10 min
# Experimental: Active transport of (4) by the bile acid transport system was evaluated in vitro by incubation of (4) or glycocholate (control substrate) with untransfected CHO K1 cells or CHO cells transfected with either IBAT or LBAT. Cells (10^5 cells/mL) were incubated in 96 well plates with varying concentrations (0.06 to 1000 μM) of (4) or glycocholate for 10 min. Cells were then washed with Hank's Balanced Salt Solution (HBSS) and lysed and extracted by addition of 100 μL of water followed by sonication. Concentrations of (4) or glycocholate in cell extracts were determined by direct injection onto an API 2000 LC/MS/MS equipped with an Agilent 1100 binary pump and autosampler. Separation was achieved using a Keystone BDS Hypersil 2×50 mm column heated to 45° C. during the analysis. The mobile phases were: 0.1% formic acid in water (A) and 0.1% formic acid in acetonitrile (B). The gradient condition was: 5% B for 1 min, increasing to 90% B in 0.2 min, maintained for 2.8 min and returning to 5% B for 2 min. A TurboIonSpray source was used on the API 2000. The analysis was performed in the positive ion mode and MRM transitions of 466/412 and 562/154 were used in the analysis of glycocholate and (4), respectively. Ten microliters of the cell extracts were injected. Peaks were integrated using Analyst quantitation software. […]
# T1 sequence (Q12908 whole entry): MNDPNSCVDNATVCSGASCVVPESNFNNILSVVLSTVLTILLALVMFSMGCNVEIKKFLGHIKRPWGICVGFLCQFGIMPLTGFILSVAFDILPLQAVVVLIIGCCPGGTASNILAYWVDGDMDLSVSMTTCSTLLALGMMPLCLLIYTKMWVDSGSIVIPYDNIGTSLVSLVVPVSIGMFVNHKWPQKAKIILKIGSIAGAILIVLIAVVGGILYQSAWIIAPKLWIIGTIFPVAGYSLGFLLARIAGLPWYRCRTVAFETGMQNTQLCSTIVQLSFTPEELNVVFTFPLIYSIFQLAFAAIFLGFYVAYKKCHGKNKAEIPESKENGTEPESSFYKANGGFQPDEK
# Chain of Cholylglycine Hydrolase (P54965 whole entry, looked up): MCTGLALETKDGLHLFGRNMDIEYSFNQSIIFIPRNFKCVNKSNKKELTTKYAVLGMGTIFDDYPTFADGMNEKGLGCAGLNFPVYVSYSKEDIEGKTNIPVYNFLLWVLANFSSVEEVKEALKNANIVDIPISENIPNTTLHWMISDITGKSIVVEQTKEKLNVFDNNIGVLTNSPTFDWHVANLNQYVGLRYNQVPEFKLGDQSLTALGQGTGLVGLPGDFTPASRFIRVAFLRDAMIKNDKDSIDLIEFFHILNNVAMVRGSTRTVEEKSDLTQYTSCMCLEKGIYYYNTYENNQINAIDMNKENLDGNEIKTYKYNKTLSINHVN
structure (smiles),measurement,setting,value
CC(CCC(=O)NCC1(CC(=O)O)CCCCC1)C1CCC2C3C(O)CC4CC(O)CCC4(C)C3CC(O)C12C (centres unmarked) [Compound (4)],pIC50,[1],4.44
same,release of gabapentin catalyzed by cholylglycine hydrolase (in words),[2],Substantially faster release
same,pEC50,[3],4.72
same,% Max. (GDC),[3]; relative to glycodeoxycholate,38%
same,Active uptake by bile acid transport system,[4],Active uptake
